Experimental data from patent US9423396B2, “Bodipy structure fluorescence probes for diverse biological applications” (National University of Singapore, priority 2011, dated 2016).

Assay: Spectroscopic measurements (absorption, emission, quantum yield, extinction coefficient)
Assay type: physicochemical
[1] = BDNCA library, difference emission minus absorption
[2] = BDNCA library, extinction coefficient; in M-1 cm-1 (unit assumed)
[3] = BDNCA library, fluorescence emission
[4] = absorption maximum, BDNCA library
[5] = difference of emission and absorption maxima
[6] = extinction coefficient, BDNCA library; in M-1 cm-1 (unit assumed)
[7] = fluorescence emission maximum, BDNCA library

SMILES	Qunt. Yield (BDNCA library)	Abs (BDNCA library, absorption)	Flu-Abs [1]	ε [2]	Flu [3]	Abs [4]	Flu-Abs [5]	ε [6]	Flu [7]	Qunt. Yield (quantum yield, BDNCA library)
CC1=CC(/C=C/c2ccc3c(c2)OCO3)=[N+]2C1=C(c1ccc(NC(=O)CCl)cc1)c1cccn1[B-]2(F)F [BDNCA-139]	0.09	568 nm	39	35,423	607	–	–	–	–	–
CC1=CC(/C=C/c2ccc(C#N)cc2)=[N+]2C1=C(c1ccc(NC(=O)CCl)cc1)c1cccn1[B-]2(F)F [BDNCA-15]	0.13	560 nm	18	49,977	578	–	–	–	–	–
Cc1cc(/C=C/c2cccc(Br)c2O)n2c1C(c1ccc(NC(=O)CCl)cc1)=C1C=CC=[N+]1[B-]2(F)F [BDNCA-256]	0.04	561 nm	21	52,449	582	–	–	–	–	–
CCCCc1ccc(/C=C/C2=[N+]3C(=C(c4ccc(NC(=O)CCl)cc4)c4cccn4[B-]3(F)F)C(C)=C2)cc1 [BDNCA-263]	0.17	559 nm	23	124,394	582	–	–	–	–	–
CC1=CC(/C=C/c2cccc(C)c2C)=[N+]2C1=C(c1ccc(NC(=O)CCl)cc1)c1cccn1[B-]2(F)F [BDNCA-349]	–	–	–	–	–	556 nm	22	36,247	578	0.03
COc1ccc2ccccc2c1/C=C/C1=[N+]2C(=C(c3ccc(NC(=O)CCl)cc3)c3cccn3[B-]2(F)F)C(C)=C1 [BDNCA-61]	0.08	581 nm	46	33,776	627	–	–	–	–	–
COc1cc(Br)cc(/C=C/C2=[N+]3C(=C(c4ccc(NC(=O)CCl)cc4)c4cccn4[B-]3(F)F)C(C)=C2)c1OC [BDNCA-228]	0.13	558 nm	19	63,707	577	–	–	–	–	–
CC1=CC(/C=C/c2[nH]cnc2C)=[N+]2C1=C(c1ccc(NC(=O)CCl)cc1)c1cccn1[B-]2(F)F [BDNCA-134]	weak	566 nm	–	12,082	weak	–	–	–	–	–
CC1=CC(/C=C/c2c[nH]c3ccc(Br)cc23)=[N+]2C1=C(c1ccc(NC(=O)CCl)cc1)c1cccn1[B-]2(F)F [BDNCA-185]	0.06	581 nm	65	29,931	646	–	–	–	–	–
Cc1ccc(/C=C/c2cc(C)c3n2[B-](F)(F)[N+]2=CC=CC2=C3c2ccc(NC(=O)CCl)cc2)cc1[N+](=O)[O-] [BDNCA-255]	0.10	556 nm	19	62,059	575	–	–	–	–	–
CC1=CC(/C=C/c2c[nH]c3ccccc23)=[N+]2C1=C(c1ccc(NC(=O)CCl)cc1)c1cccn1[B-]2(F)F [BDNCA-375]	–	–	–	–	–	591 nm	63	21,968	654	0.02
CC1=CC(/C=C/c2ncc[nH]2)=[N+]2C1=C(c1ccc(NC(=O)CCl)cc1)c1cccn1[B-]2(F)F [BDNCA-353]	–	–	–	–	–	570 nm	44	15,652	614	0.01
CC1=CC(/C=C/c2c(C)nn(C)c2C)=[N+]2C1=C(c1ccc(NC(=O)CCl)cc1)c1cccn1[B-]2(F)F [BDNCA-430]	–	–	–	–	–	567 nm	34	37,895	601	0.09
COc1cc(F)c(/C=C/c2cc(C)c3n2[B-](F)(F)[N+]2=CC=CC2=C3c2ccc(NC(=O)CCl)cc2)cc1OC [BDNCA-305]	0.22	568 nm	38	153,227	606	–	–	–	–	–
COc1cc(/C=C/C2=[N+]3C(=C(c4ccc(NC(=O)CCl)cc4)c4cccn4[B-]3(F)F)C(C)=C2)cc(OC)c1OC(C)=O [BDNCA-92]	0.01	555 nm	24	15,652	579	–	–	–	–	–
COc1cccc(/C=C/C2=[N+]3C(=C(c4ccc(NC(=O)CCl)cc4)c4cccn4[B-]3(F)F)C(C)=C2)c1Cl [BDNCA-281]	0.14	556 nm	20	79,908	576	–	–	–	–	–
CCCCN(CCCC)c1ccc(/C=C/C2=[N+]3C(=C(c4ccc(NC(=O)CCl)cc4)c4cccn4[B-]3(F)F)C(C)=C2)cc1 [BDNCA-17]	weak	627 nm	–	52,998	weak	–	–	–	–	–
CC1=CC(/C=C/c2ccc(C(C)(C)C)cc2)=[N+]2C1=C(c1ccc(NC(=O)CCl)cc1)c1cccn1[B-]2(F)F [BDNCA-177]	0.15	558 nm	23	73,867	581	–	–	–	–	–
CC1=CC(/C=C/c2cccc(Oc3ccc(Cl)c(Cl)c3)c2)=[N+]2C1=C(c1ccc(NC(=O)CCl)cc1)c1cccn1[B-]2(F)F [BDNCA-299]	0.09	556 nm	19	49,703	575	–	–	–	–	–
CC1=CC(/C=C/c2ccc(Br)s2)=[N+]2C1=C(c1ccc(NC(=O)CCl)cc1)c1cccn1[B-]2(F)F [BDNCA-100]	0.10	574 nm	23	48,879	597	–	–	–	–	–
CCOc1c(/C=C/C2=[N+]3C(=C(c4ccc(NC(=O)CCl)cc4)c4cccn4[B-]3(F)F)C(C)=C2)cccc1OC [BDNCA-320]	–	–	–	–	–	557 nm	24	59,588	581	0.10
COc1cc(Cl)cc(/C=C/C2=[N+]3C(=C(c4ccc(NC(=O)CCl)cc4)c4cccn4[B-]3(F)F)C(C)=C2)c1OC [BDNCA-282]	0.12	557 nm	20	52,723	577	–	–	–	–	–
Cc1cc(/C=C/c2cc(OC(F)(F)F)ccc2O)n2c1C(c1ccc(NC(=O)CCl)cc1)=C1C=CC=[N+]1[B-]2(F)F [BDNCA-346]	–	–	–	–	–	561 nm	23	16,476	584	0.02
COc1cc(C=CC=CC2=[N+]3C(=C(c4ccc(NC(=O)CCl)cc4)c4cccn4[B-]3(F)F)C(C)=C2)ccc1OC(C)=O [BDNCA-44]	weak	580 nm	–	12,632	weak	–	–	–	–	–
COc1ccc(/C=C/C2=[N+]3C(=C(c4ccc(NC(=O)CCl)cc4)c4cccn4[B-]3(F)F)C(C)=C2)cc1Br [BDNCA-260]	0.19	564 nm	27	86,499	591	–	–	–	–	–
CCOC(OCC)c1ccc(/C=C/C2=[N+]3C(=C(c4ccc(NC(=O)CCl)cc4)c4cccn4[B-]3(F)F)C(C)=C2)cc1 [BDNCA-49]	0.03	564 nm	17	20,046	581	–	–	–	–	–
CC1=CC(/C=C/c2ccc(Cl)c(Cl)c2)=[N+]2C1=C(c1ccc(NC(=O)CCl)cc1)c1cccn1[B-]2(F)F [BDNCA-182]	0.08	557 nm	18	37,620	575	–	–	–	–	–
COc1cc(O)c(/C=C/C2=[N+]3C(=C(c4ccc(NC(=O)CCl)cc4)c4cccn4[B-]3(F)F)C(C)=C2)c(OC)c1 [BDNCA-366]	–	–	–	–	–	579 nm	50	38,444	629	0.02
CC1=CC(/C=C/c2ccc(N(C)CCC#N)cc2)=[N+]2C1=C(c1ccc(NC(=O)CCl)cc1)c1cccn1[B-]2(F)F [BDNCA-3]	weak	605 nm	–	73,593	weak	–	–	–	–	–
COc1cc(OC)c(/C=C/C2=[N+]3C(=C(c4ccc(NC(=O)CCl)cc4)c4cccn4[B-]3(F)F)C(C)=C2)c(OC)c1 [BDNCA-82]	0.04	582 nm	50	18,398	632	–	–	–	–	–
